Assay results reported in article PMC5917093, “Brain Transport Profiles of Ginsenoside Rb1 by Glucose Transporter 1: In Vitro and in Vivo” (Frontiers in Pharmacology, 2018).
Where two headings read alike, the source gives them in different places.

What was measured:
[1] = system: rBMEC (primary cultured rat brain microvascular endothelial cells); experiment: Uptake of Rb1 by primary cultured rBMEC (time course, temperature, concentration dependence, Michaelis-Menten kinetics); format: in vitro ADME
Experimental: Isolation and culture of rat brain microvessel endothelial cells were operated according to previous studies with some modifications ([Liu et al., 2013]). The isolated rBMEC was seeded in cultured flasks coated with 2% gelatin and cultured in culture medium. The culture medium consisted of DMEM/F12 supplemented with 20% FBS, 2 mM L-glutamine, heparin (50 mg/L), 100 IU/mL penicillin, 100 μg/mL streptomycin, and NaHCO3 (0.5 g/L). On the first day after seeding, the culture medium was replaced, after which the culture medium was replaced every 2 days. At 5–6 days, the rBMEC was transferred to 6-well plates coated with gelatin and cultured in an incubator with a saturated humidity at 37°C in 5% CO2 and 95% air. Transport studies were performed when cells reached 100% confluency. The endothelial phenotype of the rBMEC was identified by staining for the endothelial cell marker vWF using a confocal laser scanning microscope (Leica TCS SP8).
When rBMEC was grown to 100% confluency in gelatin-coated 6-well plates, uptake experiments were performed. Briefly, the cultured cell monolayer was washed three times with 1 mL of pH 7.4 Hanks’ balanced salt solution (HBSS). The cultured rBMEC was pre-incubated for 30 min in 1 mL HBSS at 37 or 4°C. After pre-incubation, the HBSS solution was removed by suction, and HBSS (1 mL) containing 60 μg/mL Rb1 was added to initiate uptake. Then the cells were incubated at 37 or 4°C at a set time (5, 10, 15, 30, 60, 120, and 240 min). After the end of the incubation, the incubation solution was aspirated and the monolayers were carefully washed three times with 1 mL ice-cold HBSS to terminate the uptake. Then, 0.5 mL ultrapure water was added to each incubated well, and the material in the wells was frozen (at -80°C)/thawed (at room temperature) repeatedly four times to lyse cells. After the solubilized, the monolayer supernatants were collected and 10 μL was injected into LC–MS/MS to determine Rb1 concentration. The protein contents of the cell monolayers were measured by the method of Bradford using BSA as the standard ([Bradford, 1976]). Uptake was expressed as the cell-to-medium ratio (μL/mg protein or μL/mg protein/min) and termed the volume of distribution (Vd), obtained by dividing the uptake amount by the concentration of substrate in the transport medium. Vd is derived from the ratio of ng/mg protein to ng/μL buffer.
The uptake data were fitted to the above equation by nonlinear least-squares regression analysis with Graphpad Prism 5.0 software.
(§1) HPLC–MS/MS was composed by a Shimadzu LC-20A chromatographic system and an API 4000 mass spectrometer equipped with electrospray ionization (ESI) source system. MS/MS detection was performed on an API 4000 mass spectrometer using multiple reaction monitoring (MRM) mode by monitoring the fragmentation of m/z 1107.6 → 179.0 for Rb1 and m/z 779.4 → 345.2 for digoxin (IS). Chromatographic separations were carried out on a Shim-pack XD-ODS column (2.0 mm × 30 mm, 2.2 μm) with a Shim-pack GVD-ODS (2.0 mm × 5 mm, 4.6 μm) guard column (Shimadzu, Japan) at a flow rate of 0.28 mL/min using 10 mM acetic acid in water (phase A) and methanol (phase B) as mobile phase. A linear step gradient elution was performed as followed: phase B was increased from 45 to 90% within the first 3 min, and decreased to 45% within the next 3 min (total gradient time: 6 min). A 10 μL sample was injected into the system with the auto-sample conditioned at 4°C and column temperature maintained at 40°C.
The biological samples (100 μL) were placed in a 1.5 mL Eppendorf tube, and mixed with 10 μL IS solution (500 ng/mL) for 3 min by vortexing. The mixture was extracted with methanol (0.9 mL) by vortexing, and then centrifuged at 14,000 rpm for 5 min. The supernatant (0.8 mL) was transferred to a new 1.5 mL Eppendorf tube and evaporated to dryness under vacuum. The dried residue was reconstituted with 100 μL methanol, vortex-mixed for 30 s, and centrifuged at 14,000 rpm for 5 min. […]

[2] = Effect of phloretin on distribution of Rb1 in plasma and brain of normal rats; format: in vivo, rat; conditions: Rb1 10 mg/kg i.v.; for concentration at 0.5 h / concentration at 2 h / concentration at 6 h: rat
Experimental: Rats were randomly divided into two groups in 36 of each group. One group served as the control and another group were treated with phloretin. Dose of phloretin was set to be 5 mg/kg. Rb1 (10 mg/kg, i.v.) was administered to the experimental rats after i.v. administration of phloretin or saline for consecutive 1 week. Six rats from each group were selected and the blood samples were collected into heparinized Eppendorf tubes via the abdominal aorta at 0.5, 2, and 6 h after Rb1 administration. Then, brain samples were immediately collected. The plasma samples were obtained by centrifuging at 1000 × g for 10 min. Plasma and brain samples were frozen at -80°C until analysis.
as §1
The biological samples (100 μL) were placed in a 1.5 mL Eppendorf tube, and mixed with 10 μL IS solution (500 ng/mL) for 3 min by vortexing. The mixture was extracted with methanol (0.9 mL) by vortexing, and then centrifuged at 14,000 rpm for 5 min. The supernatant (0.8 mL) was transferred to a new 1.5 mL Eppendorf tube and evaporated to dryness under vacuum. The dried residue was reconstituted with 100 μL methanol, vortex-mixed for 30 s, and centrifuged at 14,000 rpm for 5 min. Finally, 10 μL of the supernatant liquid was immediately subjected to HPLC–MS/MS analysis. The system control and data analysis were performed by AB Sciex Analyst software (the software version: Analyst 1.5.1). Retention time for Rb1 was tR = 3.80 ± 0.01 min and for IS digoxin tR = 3.13 ± 0.01 min. The lowest limits of quantitation of Rb1 in cell lysate, plasma, and brain homogenate were 1, 2.5, and 1 ng/mL, respectively. The recoveries were higher than 90%; the relative standard deviations (SD) of intra-day and inter-day were lower than 10%.

[3] = parameters: method as in Li et al., 2007; conditions: rats, TPNS injection 10.0 mg/kg intravenous; ref Li et al., 2007; cited from earlier work
[4] = 7.5-960 μg/mL Rb1, 37°C, 120 min, Michaelis-Menten fit

Structure (SMILES): CC(C)=CCC[C@](C)(O[C@@H]1O[C@H](CO[C@@H]2O[C@H](CO)[C@@H](O)[C@H](O)[C@H]2O)[C@@H](O)[C@H](O)[C@H]1O)[C@H]1CC[C@]2(C)[C@@H]1[C@H](O)C[C@@H]1[C@@]3(C)CC[C@H](O[C@@H]4O[C@H](CO)[C@@H](O)[C@H](O)[C@H]4O[C@@H]4O[C@H](CO)[C@@H](O)[C@H](O)[C@H]4O)C(C)(C)[C@@H]3CC[C@]12C [Rb1, Ginsenoside Rb1]
- intracellular amounts of Rb1 at 37°C relative to 4°C ([1]; 60 μg/mL Rb1): about two to threefold
- time at which steady-state uptake occurred ([1]; 60 μg/mL Rb1, 37°C): 120 min
- Km [1, 4]: 119 ± 15.6 µM
- Vmax of Rb1 uptake [1, 4]: 0.0034 ± 0.0003 nmol/(mg protein ⋅ min)
- nonsaturable component (Pdiff) of Rb1 transport ([1]; 37°C): 0.0023 μL/(mg protein ⋅ min)
- share of total Rb1 uptake accounted for by the saturable component ([1]; low concentration range): 90%
- Brain-to-plasma concentration ratio (Kp) ([2]; 0.5 h, phloretin-treated (5 mg/kg i.v., 1 week)): 2.15 ± 0.19 μL/g brain
- Brain-to-plasma concentration ratio (Kp) ([2]; 0.5 h, untreated normal rats): 7.09 ± 1.01 μL/g brain
- Brain-to-plasma concentration ratio (Kp) ([2]; 2 h, phloretin-treated (5 mg/kg i.v., 1 week)): 2.56 ± 0.06 μL/g brain
- Brain-to-plasma concentration ratio (Kp) ([2]; 2 h, untreated normal rats): 4.9 ± 0.35 μL/g brain
- Brain-to-plasma concentration ratio (Kp) ([2]; 6 h, phloretin-treated (5 mg/kg i.v., 1 week)): 1.59 ± 0.005 μL/g brain
- Brain-to-plasma concentration ratio (Kp) ([2]; 6 h, untreated normal rats): 3.24 ± 0.53 μL/g brain
- concentration at 0.5 h ([2]; brain, intravenous, 0.5 h, phloretin-treated (5 mg/kg i.v., 1 week), read-out: Brain concentration): 105 ± 15.1 ng/g
- concentration at 2 h ([2]; brain, intravenous, 2 h, phloretin-treated (5 mg/kg i.v., 1 week), read-out: Brain concentration): 84.8 ± 4.1 ng/g
- concentration at 6 h ([2]; brain, intravenous, 6 h, phloretin-treated (5 mg/kg i.v., 1 week), read-out: Brain concentration): 39.9 ± 4.9 ng/g
- concentration at 0.5 h ([2]; brain, iv, 0.5 h, untreated normal rats, read-out: Brain concentration): 490 ± 58.3 ng/g
- concentration at 2 h ([2]; brain, iv, 2 h, untreated normal rats, read-out: Brain concentration): 194 ± 11.1 ng/g
- concentration at 6 h ([2]; brain, iv, 6 h, untreated normal rats, read-out: Brain concentration): 114 ± 24 ng/g
- concentration at 0.5 h ([2]; plasma, intravenous, 0.5 h, phloretin-treated (5 mg/kg i.v., 1 week), read-out: Plasma concentration): 48.7 ± 2.9 µg/mL
- concentration at 2 h ([2]; plasma, intravenous, 2 h, phloretin-treated (5 mg/kg i.v., 1 week), read-out: Plasma concentration): 33.2 ± 1.4 µg/mL
- concentration at 6 h ([2]; plasma, intravenous, 6 h, phloretin-treated (5 mg/kg i.v., 1 week), read-out: Plasma concentration): 27 ± 1.5 µg/mL
- concentration at 0.5 h ([2]; plasma, iv, 0.5 h, untreated normal rats, read-out: Plasma concentration): 69.3 ± 4.5 µg/mL
- concentration at 2 h ([2]; plasma, iv, 2 h, untreated normal rats, read-out: Plasma concentration): 39.7 ± 4.1 µg/mL
- concentration at 6 h ([2]; plasma, iv, 6 h, untreated normal rats, read-out: Plasma concentration): 35.2 ± 3 µg/mL
- duration in brain tissue [3]: ~24 h
- largest content in brain tissue [3]: about 1.4 μg/g
